Data reported in US20210340629A1, “BIOMARKERS FOR CANCER THERAPY” (The Council of the Queensland Institute of Medical Research, priority 2018, published 2021).

Legend:
[1] = tested on: PD-L1 and PD-1 in CD8+ T cells; assay: Flow cytometry analysis of tumor infiltrating lymphocytes from AT3 tumors; type: in vivo, C57BL/6 mice; settings: TILs from AT3 tumors, UNC0642 25 mg/kg every 2 days for 14 days, FIG. 18
Text: C57BL/6 mice were purchased from the ARC Animal Resources Centre and used between the ages of 6 and 16 weeks. Groups of 3 to 8 mice per experiment were used for experimental assays, to ensure adequate power to detect biological differences. All experiments were approved by the QIMR Berghofer Medical Research Institute Animal Ethics Committee.
The C57BL/6 AT3 mammary adenocarcinoma (obtained from Dr. Trina Stewart in 2009, Peter MacCallum Cancer Centre, Melbourne, Australia) were maintained as previously described (Casciello et al PNAS 2017). The AT3 cell line was tested negative for mycoplasma. For in vivo experiments, 1×10^5 cells were subcutaneously injected into mice in a 100 μL volume.
AT3 tumor growth was measured using a digital caliper, and tumor volumes were presented as mean±SEM. For flow cytometry analyses of intratumor immune cells, mice bearing established AT3 tumor (days 14-19) were treated with the indicated antibodies or reagents and immune cells were isolated 48 to 72 hours post treatment.
Tumors tissues were harvested from mice that had been treated with mAb or otherwise and processed for flow cytometry analysis. […]

[2] = tested on: C006 and C092 melanoma cell lines; assay: Proliferation by IncuCyte Zoom real time cell imaging, less sensitive lines; type: cell-based, human; settings: C006 and C092, 5 μM, 48 hours, compared to vehicle
Protocol: Four cell lines were then chosen for further analysis. These were C006 (NRAS mt), C092 (Triple wt), C008 (NF1 mt) and D05 (BRAF mt). These four lines are representatives of the 4 cutaneous melanoma genomic subtypes and include 2 lines (C008 and D05) that were very sensitive to the inhibitor and 2 lines that were less sensitive (C006 and C092). Proliferation of these lines was evaluated by real time cell imaging using IncuCyte Zoom where cells were grown for 48 hours in the presence or absence of 5 μM UNC0642.
(§1) For proliferation studies, cells (5×10^3) were seeded in 96-place wells and allowed to adhere overnight, and incubated in fresh growth medium in the presence of either the G9a inhibitor UNC0642 (Sigma Aldrich) or the vehicle control DMSO (Sigma Aldrich). Proliferation was evaluated via real-time imaging using IncuCyte Zoom (Essen BioScience) and/or by performing a 3-(4,5-dimethylthiazol-2-yl)-2,5-diphenyltetrazolium bromide ([…]) assay. After monitoring the cells, 20 μL of MTT (5 mg/mL; Sigma-Aldrich) was added. The plates were incubated at 37° C. for 3 h before the supernatants were removed, and 100 μL of isopropanol was added to each well. The absorbance value (optical density) of each well was measured at 570 nm.

melanoma cell lines = assay: Cell viability by MTT assay, melanoma cell lines; type: cell-based, human; settings: 5 μM, 48 hours, vs vehicle (DMSO), FIG. 2
Protocol: UNC0642 was purchased from Sigma Aldrich. The panel of human melanoma cell lines, derived from cutaneous melanomas, is shown in Table 1 and the cells have all been previously described. Cells were maintained in Roswell Park Memorial Institute (RPMI) 1640 supplemented with 10% fetal bovine serum (FBS), 100 U/mL penicillin, and 100 µg/mL streptomycin in a humidified atmosphere of 5% CO2 at 37° C. Normal melanocytes were grown in Clonetics™ MGM™-4 Melanocyte Growth Medium-4 supplemented with CaCl2, phorbol-12-myristate 13-acetate (PMA), recombinant human fibroblast growth factor basic (rhFGF-B), recombinant human insulin (rh-insulin), hydrocortisone, bovine pituitary extract (BPE), FBS and GA-1000 (30 μg/ml Gentamycin and 15 ng/ml Amphotericin) (Lonza).
as §1, with “The plates were incubated at 37° C. for 3 h before the supernatants were removed, and 100 μL of isopropanol was added to each well.” left out

PARP = PARP cleavage as a measure of apoptosis; type: cell-based, human; settings: any cell line treated, data not shown
Text: Having established that G9a inhibition is effective in inducing death of melanoma cells in vitro, the molecular basis for this effect was then investigated. First, cells treated with UNC0642 were examined for its effect on the cleavage of PARP as a measure of apoptosis.

Compound: COc1cc2c(NC3CCN(C(C)C)CC3)nc(N3CCC(F)(F)CC3)nc2cc1OCCCN1CCCC1 [UNC0642]
- PD-L1 and PD-1 in CD8+ T cells [1]: down-regulation
- proliferation [2]: much less affected
- Cell survival (cell viability, MTT assay) (melanoma cell lines): significantly attenuated
- PARP cleavage (PARP): No observable PARP cleavage
